# Measurements from patent US11291643B2, “Methods of treating hypertriglyceridemia” (Amarin Pharmaceuticals Ireland Limited, priority 2011, dated 2022).
# What was measured:
# [1] = test system: patients with fasting triglyceride levels ≥500 mg/dL; test: Lipoprotein particle size by NMR spectroscopy in the clinical study; assay type: in vivo, human; conditions: for VLDL particle size, placebo-adjusted median percent change from baseline: Hodges-Lehmann median; for HDL particle size, median change from baseline / LDL particle size, median change from baseline / VLDL particle size, median change from baseline: baseline to study end; for HDL particle size, end-of-treatment value (median) / LDL particle size, end-of-treatment value (median) / VLDL particle size, end-of-treatment value (median): study end
# Experimental: (§1) Lipoprotein particle concentrations and sizes were measured with nuclear magnetic resonance spectroscopy in the above described clinical trial. Lipoprotein particle size and concentration parameters were obtained from fasting blood samples. Lipoprotein particle size and concentrations are measured by nuclear magnetic resonance (NMR) spectroscopy at LipoScience, Inc. (Raleigh, N.C.) using the LipoProfile-3 algorithm. VLDL, LDL, and HDL subclasses of different size were quantified from the amplitudes of their spectroscopically-distinct lipid methyl group NMR signals.
# (§2) Subjects with missing baseline or Week 12 measurements, due to either missing laboratory samples or un-reportable values, were excluded from this analysis. The median difference of each lipoprotein particle variable (percent change from baseline) between each AMR101 treatment group and the placebo group was evaluated with a nonparametric test using the Hodges-Lehmann medians of the differences between treatment groups and the Wilcoxon rank-sum test (significance level 0.05). All statistical analyses were carried out using SAS 9.2 software.
# [2] = test system: patients with fasting triglyceride levels ≥500 mg/dL; test: Lipoprotein particle concentration by NMR spectroscopy in the clinical study; assay type: in vivo, human; conditions: for IDL particle concentration, median change from baseline / Large HDL particle concentration, median change from baseline / Large LDL particle concentration, median change from baseline / Large VLDL particle concentration, median change from baseline / Medium HDL particle concentration, median change from baseline / Medium VLDL particle concentration, median change from baseline / Small HDL particle concentration, median change from baseline / Small LDL particle concentration, median change from baseline / Small VLDL particle concentration, median change from baseline / Total HDL particle concentration, median change from baseline / Total LDL particle concentration, median change from baseline / Total VLDL particle concentration, median change from baseline: baseline to study end; for IDL particle concentration, end-of-treatment value (median) / Large HDL particle concentration, end-of-treatment value (median) / Large LDL particle concentration, end-of-treatment value (median) / Large VLDL particle concentration, end-of-treatment value (median) / Medium HDL particle concentration, end-of-treatment value (median) / Medium VLDL particle concentration, end-of-treatment value (median) / Small HDL particle concentration, end-of-treatment value (median) / Small LDL particle concentration, end-of-treatment value (median) / Small VLDL particle concentration, end-of-treatment value (median) / Total HDL particle concentration, end-of-treatment value (median) / Total LDL particle concentration, end-of-treatment value (median) / Total VLDL particle concentration, end-of-treatment value (median): study end
# Experimental: as §1
# Concentrations of the following subclasses of lipoproteins were analyzed in this study: small LDL (18.0-20.5 nm), large LDL (20.5-23.0 nm), intermediate-density lipoprotein (IDL; 23.0-29.0 nm), large high-density lipoprotein (HDL; 9.4-14.0 nm), medium HDL (8.2-9.4 nm), small HDL (7.3-8.2 nm), large very-low-density lipoprotein (VLDL; >60 nm), medium VLDL (42-60 nm), and small VLDL (29-42 nm).
# as §2
# [3] = 2 g/day vs placebo, Hodges-Lehmann median
# [4] = 4 g/day vs placebo, Hodges-Lehmann median
# [5] = 4 g/day vs placebo, stated as reduction
smiles,measurement,setting,value
"CC/C=C\C/C=C\C/C=C\C/C=C\C/C=C\CCCC(=O)OCC [AMR101, ethyl eicosapentaenoate]","VLDL particle size, placebo-adjusted median percent change from baseline",[1]; 2 g/day vs placebo,−4.0%
same,"HDL particle size, median change from baseline","[1]; 2 g/day, n = 63",0.0%
same,"LDL particle size, median change from baseline","[1]; 2 g/day, n = 63",0.0%
same,"VLDL particle size, median change from baseline","[1]; 2 g/day, n = 63",−3.4%
same,"HDL particle size, end-of-treatment value (median)","[1]; 2 g/day, n = 63",8.9 nm
same,"LDL particle size, end-of-treatment value (median)","[1]; 2 g/day, n = 63",19.6 nm
same,"VLDL particle size, end-of-treatment value (median)","[1]; 2 g/day, n = 63",60.6 nm
same,"VLDL particle size, placebo-adjusted median percent change from baseline",[1]; 4 g/day vs placebo,−8.6%
same,"LDL particle size, median change from baseline","[1]; 4 g/day, n = 60",0.0%
same,"LDL particle size, end-of-treatment value (median)","[1]; 4 g/day, n = 60",19.7 nm
same,"HDL particle size, median change from baseline","[1]; 4 g/day, n = 61",1.1%
same,"VLDL particle size, median change from baseline","[1]; 4 g/day, n = 61",−8.6%
same,"HDL particle size, end-of-treatment value (median)","[1]; 4 g/day, n = 61",8.9 nm
same,"VLDL particle size, end-of-treatment value (median)","[1]; 4 g/day, n = 61",55.7 nm
same,"Small LDL particle concentration, placebo-adjusted median percent change from baseline",[2]; [3],−12.8%
same,"Total HDL particle concentration, placebo-adjusted median percent change from baseline",[2]; [3],−3.0%
same,"Total LDL particle concentration, placebo-adjusted median percent change from baseline",[2]; [3],−1.1%
same,Reduction of small LDL particle concentration,"[2]; 2 g/day vs placebo, stated as reduction",12.8%
same,"IDL particle concentration, median change from baseline","[2]; 2 g/day, n = 63",0.8%
same,"Large HDL particle concentration, median change from baseline","[2]; 2 g/day, n = 63",−1.6%
same,"Large LDL particle concentration, median change from baseline","[2]; 2 g/day, n = 63",−20.9%
same,"Large VLDL particle concentration, median change from baseline","[2]; 2 g/day, n = 63",−2.5%
same,"Medium HDL particle concentration, median change from baseline","[2]; 2 g/day, n = 63",3.9%
same,"Medium VLDL particle concentration, median change from baseline","[2]; 2 g/day, n = 63",18.8%
same,"Small HDL particle concentration, median change from baseline","[2]; 2 g/day, n = 63",−3.2%
same,"Small LDL particle concentration, median change from baseline","[2]; 2 g/day, n = 63",9.5%
same,"Small VLDL particle concentration, median change from baseline","[2]; 2 g/day, n = 63",11.5%
same,"Total HDL particle concentration, median change from baseline","[2]; 2 g/day, n = 63",−3.3%
same,"Total LDL particle concentration, median change from baseline","[2]; 2 g/day, n = 63",12.6%
same,"Total VLDL particle concentration, median change from baseline","[2]; 2 g/day, n = 63",13.1%
same,"IDL particle concentration, end-of-treatment value (median)","[2]; 2 g/day, n = 63",144.0 nmol/L
same,"Large HDL particle concentration, end-of-treatment value (median)","[2]; 2 g/day, n = 63",2.3 µmol/L
same,"Large LDL particle concentration, end-of-treatment value (median)","[2]; 2 g/day, n = 63",51.0 nmol/L
same,"Large VLDL particle concentration, end-of-treatment value (median)","[2]; 2 g/day, n = 63",29.9 nmol/L
same,"Medium HDL particle concentration, end-of-treatment value (median)","[2]; 2 g/day, n = 63",8.7 µmol/L
same,"Medium VLDL particle concentration, end-of-treatment value (median)","[2]; 2 g/day, n = 63",93.8 nmol/L
same,"Small HDL particle concentration, end-of-treatment value (median)","[2]; 2 g/day, n = 63",21.5 µmol/L
same,"Small LDL particle concentration, end-of-treatment value (median)","[2]; 2 g/day, n = 63",1100 nmol/L
same,"Small VLDL particle concentration, end-of-treatment value (median)","[2]; 2 g/day, n = 63",53.9 nmol/L
same,"Total HDL particle concentration, end-of-treatment value (median)","[2]; 2 g/day, n = 63",33.4 µmol/L
same,"Total LDL particle concentration, end-of-treatment value (median)","[2]; 2 g/day, n = 63",1464 nmol/L
same,"Total VLDL particle concentration, end-of-treatment value (median)","[2]; 2 g/day, n = 63",190.1 nmol/L
same,"Large VLDL particle concentration, placebo-adjusted median percent change from baseline",[2]; [4],−27.9%
same,"Small LDL particle concentration, placebo-adjusted median percent change from baseline",[2]; [4],−25.6%
same,"Small VLDL particle concentration, placebo-adjusted median percent change from baseline",[2]; [4],5.3%
same,"Total HDL particle concentration, placebo-adjusted median percent change from baseline",[2]; [4],−7.4%
same,"Total LDL particle concentration, placebo-adjusted median percent change from baseline",[2]; [4],−16.3%
same,Reduction of small LDL particle concentration,[2]; [5],25.6%
same,"Reduction of total LDL particle concentration (IDL, small LDL and large LDL particles)",[2]; [5],16.3%
same,"IDL particle concentration, median change from baseline","[2]; 4 g/day, n = 61",19.2%
same,"Large HDL particle concentration, median change from baseline","[2]; 4 g/day, n = 61",8.3%
same,"Large LDL particle concentration, median change from baseline","[2]; 4 g/day, n = 61",−32.3%
same,"Large VLDL particle concentration, median change from baseline","[2]; 4 g/day, n = 61",−24.5%
same,"Medium HDL particle concentration, median change from baseline","[2]; 4 g/day, n = 61",−18.3%
same,"Medium VLDL particle concentration, median change from baseline","[2]; 4 g/day, n = 61",36.4%
same,"Small HDL particle concentration, median change from baseline","[2]; 4 g/day, n = 61",−5.1%
same,"Small LDL particle concentration, median change from baseline","[2]; 4 g/day, n = 61",−9.7%
same,"Small VLDL particle concentration, median change from baseline","[2]; 4 g/day, n = 61",4.3%
same,"Total HDL particle concentration, median change from baseline","[2]; 4 g/day, n = 61",−7.1%
same,"Total LDL particle concentration, median change from baseline","[2]; 4 g/day, n = 61",−0.1%
same,"Total VLDL particle concentration, median change from baseline","[2]; 4 g/day, n = 61",15.2%
same,"IDL particle concentration, end-of-treatment value (median)","[2]; 4 g/day, n = 61",185.0 nmol/L
same,"Large HDL particle concentration, end-of-treatment value (median)","[2]; 4 g/day, n = 61",2.3 µmol/L
same,"Large LDL particle concentration, end-of-treatment value (median)","[2]; 4 g/day, n = 61",64.0 nmol/L
same,"Large VLDL particle concentration, end-of-treatment value (median)","[2]; 4 g/day, n = 61",21.2 nmol/L
same,"Medium HDL particle concentration, end-of-treatment value (median)","[2]; 4 g/day, n = 61",8.4 µmol/L
same,"Medium VLDL particle concentration, end-of-treatment value (median)","[2]; 4 g/day, n = 61",106.8 nmol/L
same,"Small HDL particle concentration, end-of-treatment value (median)","[2]; 4 g/day, n = 61",21.6 µmol/L
same,"Small LDL particle concentration, end-of-treatment value (median)","[2]; 4 g/day, n = 61",998.0 nmol/L
same,"Small VLDL particle concentration, end-of-treatment value (median)","[2]; 4 g/day, n = 61",52.5 nmol/L
same,"Total HDL particle concentration, end-of-treatment value (median)","[2]; 4 g/day, n = 61",30.8 µmol/L
same,"Total LDL particle concentration, end-of-treatment value (median)","[2]; 4 g/day, n = 61",1419 nmol/L
same,"Total VLDL particle concentration, end-of-treatment value (median)","[2]; 4 g/day, n = 61",200.3 nmol/L
